From ChEMBL document CHEMBL5291721, “A preclinical secondary pharmacology resource illuminates target-adverse drug reaction associations of marketed drugs” (Nat Commun, 2023)

How the values were obtained:
[1] = biological target: Delta-type opioid receptor (Homo sapiens, UniProt P41143)
[2] = biological target: Mu-type opioid receptor (Homo sapiens, UniProt P35372)
[3] = biological target: T1, 5-hydroxytryptamine receptor 1A (Homo sapiens, UniProt P08908); type: functional, cell-based
T1 sequence (P08908 whole entry): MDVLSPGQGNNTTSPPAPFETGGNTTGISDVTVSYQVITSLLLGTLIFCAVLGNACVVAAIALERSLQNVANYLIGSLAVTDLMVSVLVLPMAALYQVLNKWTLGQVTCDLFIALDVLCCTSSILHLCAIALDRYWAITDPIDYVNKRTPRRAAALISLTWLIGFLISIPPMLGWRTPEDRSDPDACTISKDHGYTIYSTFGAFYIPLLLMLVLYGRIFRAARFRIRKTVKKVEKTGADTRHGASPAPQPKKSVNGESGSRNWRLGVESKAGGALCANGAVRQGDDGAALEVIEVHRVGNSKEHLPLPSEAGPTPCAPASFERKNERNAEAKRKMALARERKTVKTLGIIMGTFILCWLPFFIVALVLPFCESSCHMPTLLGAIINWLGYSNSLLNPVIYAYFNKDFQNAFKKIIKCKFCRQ

[4] = biological target: T2, Prostaglandin G/H synthase 1 (Rattus norvegicus, UniProt Q63921); type: functional
T2 sequence (Q63921 whole entry): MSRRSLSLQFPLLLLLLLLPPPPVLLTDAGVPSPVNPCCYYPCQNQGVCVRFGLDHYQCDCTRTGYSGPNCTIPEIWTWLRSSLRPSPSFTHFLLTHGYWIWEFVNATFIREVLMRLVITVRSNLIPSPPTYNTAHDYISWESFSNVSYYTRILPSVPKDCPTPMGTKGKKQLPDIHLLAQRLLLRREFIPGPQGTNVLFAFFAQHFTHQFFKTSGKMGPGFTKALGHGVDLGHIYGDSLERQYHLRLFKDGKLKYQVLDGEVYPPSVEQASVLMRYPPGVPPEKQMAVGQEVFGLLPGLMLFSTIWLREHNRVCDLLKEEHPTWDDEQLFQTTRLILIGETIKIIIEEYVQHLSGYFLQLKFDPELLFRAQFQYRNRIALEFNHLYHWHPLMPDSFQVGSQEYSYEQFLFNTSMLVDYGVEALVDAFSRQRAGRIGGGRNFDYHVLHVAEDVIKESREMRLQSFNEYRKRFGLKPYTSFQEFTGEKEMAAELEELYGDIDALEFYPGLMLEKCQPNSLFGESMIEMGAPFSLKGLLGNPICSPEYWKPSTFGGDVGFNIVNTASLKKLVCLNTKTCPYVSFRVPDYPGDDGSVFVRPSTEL

[5] = biological target: T3, Adenosine receptor A3 (Homo sapiens, UniProt P0DMS8)
T3 sequence (P0DMS8 whole entry): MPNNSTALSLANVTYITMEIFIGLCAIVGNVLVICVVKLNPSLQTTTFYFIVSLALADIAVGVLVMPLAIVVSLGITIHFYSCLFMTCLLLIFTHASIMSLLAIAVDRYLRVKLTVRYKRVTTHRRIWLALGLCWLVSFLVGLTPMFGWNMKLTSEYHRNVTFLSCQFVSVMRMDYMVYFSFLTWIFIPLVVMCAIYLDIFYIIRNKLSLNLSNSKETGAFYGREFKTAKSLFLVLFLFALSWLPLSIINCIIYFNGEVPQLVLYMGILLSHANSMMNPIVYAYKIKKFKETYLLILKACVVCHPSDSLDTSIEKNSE

[6] = biological target: 5-hydroxytryptamine receptor 2B (Homo sapiens, UniProt P41595); type: functional, cell-based
[7] = biological target: Growth hormone secretagogue receptor type 1 (Homo sapiens, UniProt Q92847)
[8] = biological target: T4, Type-1 angiotensin II receptor (Homo sapiens, UniProt P30556)
T4 sequence (P30556 whole entry): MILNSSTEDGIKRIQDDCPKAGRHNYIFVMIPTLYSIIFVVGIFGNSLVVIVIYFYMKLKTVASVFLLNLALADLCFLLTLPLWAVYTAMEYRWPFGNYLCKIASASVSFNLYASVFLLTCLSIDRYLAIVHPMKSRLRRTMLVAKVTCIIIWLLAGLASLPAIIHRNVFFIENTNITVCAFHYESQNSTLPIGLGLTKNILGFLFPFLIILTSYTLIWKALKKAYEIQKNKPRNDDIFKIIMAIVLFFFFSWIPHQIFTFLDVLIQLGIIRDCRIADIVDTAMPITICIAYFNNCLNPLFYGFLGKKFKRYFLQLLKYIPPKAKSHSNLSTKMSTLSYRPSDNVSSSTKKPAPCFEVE

[9] = biological target: Sodium-dependent dopamine transporter (Homo sapiens, UniProt Q01959)
[10] = biological target: T5, Muscarinic acetylcholine receptor M2 (Homo sapiens, UniProt P08172)
T5 sequence (P08172 whole entry): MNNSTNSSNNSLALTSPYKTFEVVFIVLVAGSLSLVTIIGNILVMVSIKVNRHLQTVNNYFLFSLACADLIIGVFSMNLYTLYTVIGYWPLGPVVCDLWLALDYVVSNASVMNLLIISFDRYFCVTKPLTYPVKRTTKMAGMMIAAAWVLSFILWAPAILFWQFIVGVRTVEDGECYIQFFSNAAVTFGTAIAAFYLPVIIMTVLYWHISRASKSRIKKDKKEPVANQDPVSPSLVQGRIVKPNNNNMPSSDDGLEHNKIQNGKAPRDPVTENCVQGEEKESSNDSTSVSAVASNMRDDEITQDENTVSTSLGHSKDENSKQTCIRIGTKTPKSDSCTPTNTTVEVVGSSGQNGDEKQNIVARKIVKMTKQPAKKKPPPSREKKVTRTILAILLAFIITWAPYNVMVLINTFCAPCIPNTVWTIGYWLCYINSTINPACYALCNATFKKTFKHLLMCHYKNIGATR

[11] = biological target: T6, Thromboxane A2 receptor (Homo sapiens, UniProt P21731); type: functional, cell-based
T6 sequence (P21731 whole entry): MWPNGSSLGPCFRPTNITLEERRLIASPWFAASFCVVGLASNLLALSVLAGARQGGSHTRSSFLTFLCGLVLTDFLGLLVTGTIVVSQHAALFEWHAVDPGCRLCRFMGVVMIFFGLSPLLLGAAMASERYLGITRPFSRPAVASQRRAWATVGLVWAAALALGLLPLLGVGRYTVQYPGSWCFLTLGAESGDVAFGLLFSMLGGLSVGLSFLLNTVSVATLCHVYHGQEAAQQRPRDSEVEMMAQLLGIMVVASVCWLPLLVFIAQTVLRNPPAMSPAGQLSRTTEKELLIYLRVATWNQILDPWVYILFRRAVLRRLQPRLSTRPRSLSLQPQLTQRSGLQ
Note: assay procedure not described here.

Chain of Growth hormone secretagogue receptor type 1 (Q92847 whole entry): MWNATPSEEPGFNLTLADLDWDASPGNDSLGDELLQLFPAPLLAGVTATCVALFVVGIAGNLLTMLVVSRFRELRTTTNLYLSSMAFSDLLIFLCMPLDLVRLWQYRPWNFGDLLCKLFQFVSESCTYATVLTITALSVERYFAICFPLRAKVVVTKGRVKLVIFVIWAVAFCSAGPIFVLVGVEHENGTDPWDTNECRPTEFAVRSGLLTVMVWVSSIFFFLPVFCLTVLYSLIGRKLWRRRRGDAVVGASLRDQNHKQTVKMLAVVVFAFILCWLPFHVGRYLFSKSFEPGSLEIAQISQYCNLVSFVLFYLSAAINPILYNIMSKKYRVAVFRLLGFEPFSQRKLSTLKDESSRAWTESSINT
Chain of Sodium-dependent dopamine transporter (Q01959 whole entry): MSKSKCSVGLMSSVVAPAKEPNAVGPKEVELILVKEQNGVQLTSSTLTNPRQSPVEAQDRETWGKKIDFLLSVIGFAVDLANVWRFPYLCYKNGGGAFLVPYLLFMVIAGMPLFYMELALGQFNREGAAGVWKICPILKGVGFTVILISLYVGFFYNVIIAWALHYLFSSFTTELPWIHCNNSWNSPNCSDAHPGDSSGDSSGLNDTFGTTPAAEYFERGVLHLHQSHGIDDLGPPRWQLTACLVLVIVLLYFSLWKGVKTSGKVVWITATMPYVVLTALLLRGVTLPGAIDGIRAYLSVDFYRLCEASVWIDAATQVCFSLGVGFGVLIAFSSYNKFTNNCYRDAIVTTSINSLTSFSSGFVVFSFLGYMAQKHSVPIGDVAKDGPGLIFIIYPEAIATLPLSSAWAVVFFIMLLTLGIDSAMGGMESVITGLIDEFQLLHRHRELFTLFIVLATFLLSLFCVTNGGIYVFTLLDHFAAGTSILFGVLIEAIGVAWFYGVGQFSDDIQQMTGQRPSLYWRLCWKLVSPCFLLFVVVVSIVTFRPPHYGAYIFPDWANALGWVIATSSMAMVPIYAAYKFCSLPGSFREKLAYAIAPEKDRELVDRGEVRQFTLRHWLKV
Chain of Delta-type opioid receptor (P41143 whole entry): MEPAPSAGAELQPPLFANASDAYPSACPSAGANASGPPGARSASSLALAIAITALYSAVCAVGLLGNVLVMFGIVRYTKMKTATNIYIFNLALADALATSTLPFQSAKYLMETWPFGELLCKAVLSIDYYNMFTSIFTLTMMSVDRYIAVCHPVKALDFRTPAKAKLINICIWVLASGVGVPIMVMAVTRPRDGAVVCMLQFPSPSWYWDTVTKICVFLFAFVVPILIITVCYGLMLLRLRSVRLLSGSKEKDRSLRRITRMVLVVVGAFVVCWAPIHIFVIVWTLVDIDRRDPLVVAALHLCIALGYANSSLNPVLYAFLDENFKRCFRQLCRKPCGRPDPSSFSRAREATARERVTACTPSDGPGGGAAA
Chain of 5-hydroxytryptamine receptor 2B (P41595 whole entry): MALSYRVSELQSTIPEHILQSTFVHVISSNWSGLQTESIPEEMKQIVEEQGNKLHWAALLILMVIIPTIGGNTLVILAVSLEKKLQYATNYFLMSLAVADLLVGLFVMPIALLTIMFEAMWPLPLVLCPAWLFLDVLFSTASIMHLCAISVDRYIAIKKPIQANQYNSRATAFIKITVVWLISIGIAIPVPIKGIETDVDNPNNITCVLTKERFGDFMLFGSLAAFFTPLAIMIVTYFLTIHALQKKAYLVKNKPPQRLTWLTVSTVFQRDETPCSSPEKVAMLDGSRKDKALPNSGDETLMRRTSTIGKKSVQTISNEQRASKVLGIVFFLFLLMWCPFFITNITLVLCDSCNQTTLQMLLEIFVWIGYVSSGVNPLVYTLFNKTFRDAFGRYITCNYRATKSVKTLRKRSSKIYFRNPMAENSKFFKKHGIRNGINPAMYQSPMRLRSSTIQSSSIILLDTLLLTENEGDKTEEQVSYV
Chain of Mu-type opioid receptor (P35372 whole entry): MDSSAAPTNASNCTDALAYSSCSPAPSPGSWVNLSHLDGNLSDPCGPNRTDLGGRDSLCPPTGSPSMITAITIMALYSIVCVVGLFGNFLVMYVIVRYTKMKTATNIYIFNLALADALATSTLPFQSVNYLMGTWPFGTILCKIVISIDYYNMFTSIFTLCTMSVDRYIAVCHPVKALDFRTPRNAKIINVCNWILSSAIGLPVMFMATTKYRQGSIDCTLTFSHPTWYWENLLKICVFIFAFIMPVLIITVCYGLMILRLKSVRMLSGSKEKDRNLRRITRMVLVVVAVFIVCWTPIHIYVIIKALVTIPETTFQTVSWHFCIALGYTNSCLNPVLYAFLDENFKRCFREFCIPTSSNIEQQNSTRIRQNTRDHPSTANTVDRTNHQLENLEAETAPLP

Compound	AC50 [1] [µM]	AC50 [2] [µM]	AC50 [3] [µM]	AC50 [4] [µM]	AC50 [5] [µM]	AC50 [6] [µM]	AC50 [7] [µM]	AC50 [8] [µM]	AC50 [9] [µM]	AC50 [10] [µM]	AC50 [11] [µM]
CO/N=C(\C(=O)N[C@@H]1C(=O)N2C(C(=O)[O-])=C(C[N+]3(C)CCCC3)CS[C@H]12)c1csc(N)n1	> 300	> 300	> 300	> 300	> 300	> 300	> 300	> 300	–	–	–
COC(=O)N[C@H](C(=O)N1CCC[C@H]1c1nc(-c2ccc(-c3ccc(-c4c[nH]c([C@@H]5CCCN5C(=O)[C@@H](NC(=O)OC)C(C)C)n4)cc3)cc2)c[nH]1)C(C)C	> 30	–	> 30	> 30	> 30	> 30	> 30	> 30	–	–	–
CCOC(=O)[C@H](CCc1ccccc1)N[C@@H](C)C(=O)N1CCC[C@H]1C(=O)O	> 10	> 10	> 10	> 30	> 30	> 10	> 30	> 30	–	–	–
CC(N)Cc1ccccc1 (centres undefined) [AMPHETAMINE]	> 30	–	> 30	> 30	> 30	> 30	> 30	> 30	–	–	–
CN1CCCC(n2nc(Cc3ccc(Cl)cc3)c3ccccc3c2=O)CC1 (centres undefined) [AZELASTINE]	> 30	23	> 30	> 30	> 30	–	14	> 30	–	–	–
O=C1c2c(O)c(=O)ccn2N([C@@H]2c3ccccc3SCc3c2ccc(F)c3F)[C@@H]2COCCN12 [BALOXAVIR]	–	–	–	–	–	–	–	–	> 30	> 30	> 30
C(=N\NC1=NCCN1)/c1c2ccccc2c(/C=N/NC2=NCCN2)c2ccccc12 [BISANTRENE]	–	–	–	–	–	–	–	–	9.57	2.74	> 30
COc1cc(Nc2c(C#N)cnc3cc(OCCCN4CCN(C)CC4)c(OC)cc23)c(Cl)cc1Cl [BOSUTINIB]	> 10	–	–	> 30	10.3	–	4.3	> 30	7.55	4.94	> 10
N[C@@H](C(=O)N[C@@H]1C(=O)N2C(C(=O)O)=C(Cl)CS[C@H]12)c1ccccc1 [CEFACLOR ANHYDROUS]	> 30	–	> 30	> 30	24	> 30	> 30	> 30	–	–	–
CC(=O)OCC(=O)[C@@]1(O)CC[C@H]2[C@@H]3CCC4=CC(=O)CC[C@]4(C)[C@H]3C(=O)C[C@@]21C [CORTISONE ACETATE]	> 30	–	> 30	–	–	> 30	–	–	–	–	–
O=C1c2ccccc2C(=O)C1C(=O)C(c1ccccc1)c1ccccc1 [DIPHENADIONE]	–	–	–	–	–	–	–	–	> 30	> 30	7.02
